Results as given in patent US9789089B2 (Gilead Sciences, Inc., priority 2013, dated 2017).
Where two headings read alike, the source gives them in different places.

Experiments:
[1] = Test B: Cytotoxicity assay; assay type: cell-based; conditions: human, uninfected MT-4 cells, same protocol as Test A, CellTiter-Glo
Experimental: (§1) For the antiviral assay, 40 μL of 1× test concentration of 3-fold serially diluted compound in culture medium with 10% FBS was added to each well of a 384-well plate (10 concentrations) in quadruplicate. MT-4 cells were next mixed with HIV-IIIb at an m.o.i of 0.003 for 1 hour, after which time 35 μL of virus/cell mixture (2000 cells) was immediately added to each well containing 40 μL of diluted compound. The plates were then incubated at 37° C. for 5 days. After 5 days of incubation, 25 μl of 2× concentrated CellTiter-Glo™ Reagent (catalog #G7571, Promega Biosciences, Inc., Madison, Wis.) was added to each well containing MT-4 cells. Cell lysis was carried out by incubating at room temperature for 10 min and then chemiluminescence was read.
Test B:Cytotoxicity assay
Compound cytotoxicity and the corresponding CC50 values was determined using the same protocol as described in the antiviral assay (Test A) except that uninfected cells were used.

[2] = system: HIV-IIIb; assay: Test A: Antiviral Assay in MT4 Cells; assay type: cell-based, HIV-1; conditions: read-out: % inhibition at 6 μM
Experimental: Test A: Antiviral Assay in MT4 Cells
as §1

[3] = Human immunodeficiency virus 1, IIIB, MT4, 120 h
[4] = Human immunodeficiency virus 1, MT4, 120 h, percent inhibition of virus-induced cell killing at 6 μM drug concentration, from the dose response curve, MT-4 cells infected with HIV-IIIb, 5 days

COc1ccccc1Cn1ccnc1[C@H](Cc1ccccc1)NC(=O)Cc1c[nH]c2ccc(O)cc12 [Compound 3C, (S)-2-(5-hydroxy-1H-indol-3-yl)-N-(1-(1-(2-methoxybenzyl)-1H-imidazol-2-yl)-2-phenylethyl)acetamide]
CC50 at 5 days [1]: 37.1 µM | inhibition at 6 µM [2, 3]: 19%

O=C(Cc1c[nH]c2ccc(F)cc12)N[C@@H](Cc1cc(F)cc(F)c1)c1nocc1-c1ccc(Cl)cc1 [Compound 25I, (S)—N-(1-(4-(4-chlorophenyl)isoxazol-3-yl)-2-(3,5-difluorophenyl)ethyl)-2-(5-fluoro-1H-indol-3-yl)acetamide]
CC50 at 5 days [1]: 9.89 µM | inhibition at 6 µM [2, 4]: 68%

COc1ccc(-n2ccnc2[C@@H](Cc2cc(F)cc(F)c2)NC(=O)Cn2nc(C(F)(F)F)c3c2CCCC3)cc1 [Compound 6B, (R)—N-(2-(3,5-difluorophenyl)-1-(1-(4-methoxyphenyl)-1H-imidazol-2-yl)ethyl)-2-(3-(trifluoromethyl)-4,5,6,7-tetrahydro-1H-indazol-1-yl)acetamide]
CC50 at 5 days [1]: 12 µM | inhibition at 6 µM [2, 3]: 4%

Cc1ccccc1-c1scnc1C(Cc1cc(F)cc(F)c1)NC(=O)Cc1c[nH]c2ccc(O)cc12 (stereo not drawn) [Compound 13E, N-(2-(3,5-difluorophenyl)-1-(5-(o-tolyl)thiazol-4-yl)ethyl)-2-(5-hydroxy-1H-indol-3-yl)acetamide]
inhibition at 6 µM [2, 3]: 93%

O=C(Cc1c[nH]c2ccc(O)cc12)N[C@@H](Cc1cc(F)cc(F)c1)c1nocc1-c1ccc(Cl)cc1 [Compound 26, (S)—N-(1-(4-(4-chlorophenyl)isoxazol-3-yl)-2-(3,5-difluorophenyl)ethyl)-2-(5-hydroxy-1H-indol-3-yl)acetamide]
inhibition at 6 µM [2, 3]: 106%

O=C(Cc1c[nH]c2ccc(O)cc12)NC(Cc1ccccc1)c1cnnn1-c1ccccc1 (stereo not drawn) [Compound 12, 2-(5-hydroxy-1H-indol-3-yl)-N-(2-phenyl-1-(1-phenyl-1H-1,2,3-triazol-5-yl)ethyl)acetamide]
CC50 at 5 days [1]: > 53 µM | inhibition at 6 µM [2, 4]: 4%

Cn1cnc(C(Cc2cc(F)cc(F)c2)NC(=O)Cn2nc(C(F)(F)F)c3c2CCCC3)c1-c1ccc(Cl)cc1 (stereo not drawn) [Compound 30, N-(1-(5-(4-chlorophenyl)-1-methyl-1H-imidazol-4-yl)-2-(3,5-difluorophenyl)ethyl)-2-(3-(trifluoromethyl)-4,5,6,7-tetrahydro-1H-indazol-1-yl)acetamide]
CC50 at 5 days [1]: 11 µM | inhibition at 6 µM [2, 4]: 69%

O=C(Cc1c[nH]c2ccc(O)nc12)NC(Cc1cc(F)cc(F)c1)c1cnc(-c2ccc(Cl)cc2)o1 (stereo not drawn) [Compound 22, N-(1-(2-(4-chlorophenyl)oxazol-5-yl)-2-(3,5-difluorophenyl)ethyl)-2-(5-hydroxy-1H-pyrrolo[3,2-b]pyridin-3-yl)acetamide]
CC50 at 5 days [1]: 50.7 µM | inhibition at 6 µM [2, 4]: 1%

O=C(Cc1c[nH]c2ccc(O)cc12)N[C@H](Cc1cc(F)cc(F)c1)c1nocc1-c1ccc(Cl)cc1 [Compound 28B, (R)—N-(1-(4-(4-chlorophenyl)isoxazol-3-yl)-2-(3,5-difluorophenyl)ethyl)-2-(5-hydroxy-1H-indol-3-yl)acetamide]
inhibition at 6 µM [2, 3]: 3%

COc1ccc(-n2ccnc2[C@H](Cc2cc(F)cc(F)c2)NC(=O)Cn2nc(C(F)(F)F)c3c2CCCC3)cc1 [Compound 5F, (S)—N-(2-(3,5-difluorophenyl)-1-(1-(4-methoxyphenyl)-1H-imidazol-2-yl)ethyl)-2-(3-(trifluoromethyl)-4,5,6,7-tetrahydro-1H-indazol-1-yl)acetamide]
CC50 at 5 days [1]: 13.5 µM | inhibition at 6 µM [2, 3]: 79%

Cc1nnc(C(Cc2ccccc2)NC(=O)Cn2nc(C(F)(F)F)c3c2CCCC3)n1-c1ccccc1 (stereo not drawn) [Compound 11, N-(1-(5-methyl-4-phenyl-4H-1,2,4-triazol-3-yl)-2-phenylethyl)-2-(3-(trifluoromethyl)-4,5,6,7-tetrahydro-1H-indazol-1-yl)acetamide]
CC50 at 5 days [1]: > 53 µM | inhibition at 6 µM [2, 4]: 76%

Cc1cc2ncn(CC(=O)NC(Cc3cc(F)cc(F)c3)c3ncoc3-c3ccc(Cl)cc3)c2cc1C (stereo not drawn) [Compound 33H, N-(1-(5-(4-chlorophenyl)oxazol-4-yl)-2-(3,5-difluorophenyl)ethyl)-2-(5,6-dimethyl-1H-benzo[d]imidazol-1-yl)acetamide]
CC50 at 5 days [1]: 31.8 µM

Cn1cnc(C(Cc2cc(F)cc(F)c2)NC(=O)Cc2c[nH]c3ccc(C(F)(F)F)cc23)c1-c1ccc(Cl)cc1 (stereo not drawn) [Compound 32, N-(1-(5-(4-chlorophenyl)-1-methyl-1H-imidazol-4-yl)-2-(3,5-difluorophenyl)ethyl)-2-(5-(trifluoromethyl)-1H-indol-3-yl)acetamide]
CC50 at 5 days [1]: 11.9 µM | inhibition at 6 µM [2, 4]: 0%

COc1ccc2[nH]cc(CC(=O)NC(Cc3cc(F)cc(F)c3)c3ncoc3-c3ccc(Cl)cc3)c2n1 (stereo not drawn) [Compound 35, N-(1-(5-(4-chlorophenyl)oxazol-4-yl)-2-(3,5-difluorophenyl)ethyl)-2-(5-methoxy-1H-pyrrolo[3,2-b]pyridin-3-yl)acetamide]
CC50 at 5 days [1]: 15.3 µM | inhibition at 6 µM [2, 4]: 0%

Cc1nc(-c2ccccc2)c(C(Cc2ccccc2)NC(=O)Cc2c[nH]c3ccc(O)cc23)s1 (stereo not drawn) [Compound 15C, 2-(5-hydroxy-1H-indol-3-yl)-N-(1-(2-methyl-4-phenylthiazol-5-yl)-2-phenylethyl)acetamide]
CC50 at 5 days [1]: 35 µM | inhibition at 6 µM [2, 4]: 0%

O=C(Cn1nc(C(F)(F)F)c2c1CCCC2)NC(Cc1ccccc1)c1cnnn1-c1ccccc1 (stereo not drawn) [Compound 9E, N-(2-phenyl-1-(1-phenyl-1H-1,2,3-triazol-5-yl)ethyl)-2-(3-(trifluoromethyl)-4,5,6,7-tetrahydro-1H-indazol-1-yl)acetamide]
CC50 at 5 days [1]: 13.2 µM | inhibition at 6 µM [2, 3]: 0%

O=C(Cc1c[nH]c2ccc(O)nc12)NC(Cc1cc(F)cc(F)c1)c1ncoc1-c1ccc(Cl)cc1 (stereo not drawn) [Compound 38, N-(1-(5-(4-chlorophenyl)oxazol-4-yl)-2-(3,5-difluorophenyl)ethyl)-2-(5-hydroxy-1H-pyrrolo[3,2-b]pyridin-3-yl)acetamide]
CC50 at 5 days [1]: 19.1 µM | inhibition at 6 µM [2, 4]: 0%

O=C(Cc1c[nH]c2ccc(O)cc12)NC(Cc1cc(F)cc(F)c1)c1ncoc1-c1ccc(Cl)cc1 (stereo not drawn) [Compound 34, N-(1-(5-(4-chlorophenyl)oxazol-4-yl)-2-(3,5-difluorophenyl)ethyl)-2-(5-hydroxy-1H-indol-3-yl)acetamide]
CC50 at 5 days [1]: 22.1 µM | inhibition at 6 µM [2, 4]: 0%

Cn1cnc(C(Cc2cc(F)cc(F)c2)NC(=O)Cc2c[nH]c3ccc(O)cc23)c1-c1ccc(Cl)cc1 (stereo not drawn) [Compound 31, N-(1-(5-(4-chlorophenyl)-1-methyl-1H-imidazol-4-yl)-2-(3,5-difluorophenyl)ethyl)-2-(5-hydroxy-1H-indol-3-yl)acetamide]
inhibition at 6 µM [2, 3]: 75%

COc1ccc2[nH]cc(CC(=O)NC(Cc3cc(F)cc(F)c3)c3cnc(-c4ccc(Cl)cc4)o3)c2n1 (stereo not drawn) [Compound 21, N-(1-(2-(4-chlorophenyl)oxazol-5-yl)-2-(3,5-difluorophenyl)ethyl)-2-(5-methoxy-1H-pyrrolo[3,2-b]pyridin-3-yl)acetamide]
CC50 at 5 days [1]: 25.4 µM | inhibition at 6 µM [2, 4]: 2%

O=C(Cn1nc(C(F)(F)F)c2c1CCCC2)N[C@@H](Cc1cc(F)cc(F)c1)c1nocc1-c1ccc(Cl)cc1 [Compound 27, (S)—N-(1-(4-(4-chlorophenyl)isoxazol-3-yl)-2-(3,5-difluorophenyl)ethyl)-2-(3-(trifluoromethyl)-4,5,6,7-tetrahydro-1H-indazol-1-yl)acetamide]
CC50 at 5 days [1]: 6.17 µM | inhibition at 6 µM [2, 4]: 28%

CC(C)CCn1ccnc1[C@H](Cc1ccccc1)NC(=O)Cn1nc(C(F)(F)F)c2c1CCCC2 [Compound 2, (S)—N-(1-(1-isopentyl-1H-imidazol-2-yl)-2-phenylethyl)-2-(3-(trifluoromethyl)-4,5,6,7-tetrahydro-1H-indazol-1-yl)acetamide]
CC50 at 5 days [1]: 27.8 µM | inhibition at 6 µM [2, 4]: 6%

Cc1nc(-c2ccccc2)c([C@H](Cc2ccccc2)NC(=O)Cn2nc(C(F)(F)F)c3c2CCCC3)s1 [Compound 16, (S)—N-(1-(2-methyl-4-phenylthiazol-5-yl)-2-phenylethyl)-2-(3-(trifluoromethyl)-4,5,6,7-tetrahydro-1H-indazol-1-yl)acetamide]
CC50 at 5 days [1]: 51.9 µM | inhibition at 6 µM [2, 4]: 0%

Cn1cnc(C(Cc2cc(F)cc(F)c2)NC(=O)Cc2c[nH]c3ccc(F)cc23)c1-c1ccc(Cl)cc1 (stereo not drawn) [Compound 29G, N-(1-(5-(4-chlorophenyl)-1-methyl-1H-imidazol-4-yl)-2-(3,5-difluorophenyl)ethyl)-2-(5-fluoro-1H-indol-3-yl)acetamide]
CC50 at 5 days [1]: 10.8 µM | inhibition at 6 µM [2, 3]: 44%

COc1ccc(-n2ccnc2[C@@H](Cc2cc(F)cc(F)c2)NC(=O)Cc2c[nH]c3ccc(O)cc23)cc1 [Compound 8, (R)—N-(2-(3,5-difluorophenyl)-1-(1-(4-methoxyphenyl)-1H-imidazol-2-yl)ethyl)-2-(5-hydroxy-1H-indol-3-yl)acetamide]
inhibition at 6 µM [2, 3]: 6%

COc1ccc(-n2ccnc2[C@H](Cc2cc(F)cc(F)c2)NC(=O)Cc2c[nH]c3ccc(O)cc23)cc1 [Compound 7, (S)—N-(2-(3,5-difluorophenyl)-1-(1-(4-methoxyphenyl)-1H-imidazol-2-yl)ethyl)-2-(5-hydroxy-1H-indol-3-yl)acetamide]
inhibition at 6 µM [2, 3]: 121%
